In PubChem BioAssay AID566 (University of Pittsburgh Molecular Library Screening Center, 2006) one finds IC50 data, which are given here for 1 molecule.

The target of this test is Dual specificity protein phosphatase 6 (Rattus norvegicus) (UniProt Q64346). The test is described as follows: MKP-3 phosphatase inhibitors, repeat potency, dose response, biochemical, rat DUSP6, reproducibility testing, probe assessment (AID 566). Particulars: recombinant MKP-3 phosphatase, fluorescence substrate.

SMILES strings stand for the structures. Activity calls are given as the source filed them. The rule behind the calls is not given here.

Sequence of Dual specificity protein phosphatase 6 (Rattus norvegicus) (Q64346 whole entry, looked up): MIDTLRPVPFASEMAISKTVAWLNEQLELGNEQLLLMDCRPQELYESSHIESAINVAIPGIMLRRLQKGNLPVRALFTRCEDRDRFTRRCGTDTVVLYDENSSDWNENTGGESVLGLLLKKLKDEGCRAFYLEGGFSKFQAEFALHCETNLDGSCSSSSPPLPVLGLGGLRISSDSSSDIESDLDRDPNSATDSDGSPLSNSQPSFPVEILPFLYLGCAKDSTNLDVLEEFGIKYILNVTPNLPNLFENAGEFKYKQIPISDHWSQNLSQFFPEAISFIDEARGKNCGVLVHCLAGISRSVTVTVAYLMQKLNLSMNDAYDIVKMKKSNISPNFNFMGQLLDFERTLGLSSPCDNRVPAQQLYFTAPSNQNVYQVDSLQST

The IC50 is the point on the concentration scale where inhibition reaches its midpoint. For the molecule `O=C1C(C2=C(O)c3ccccc3C2=O)=Nc2ccccc21`, the IC50 is > 50 µM (inactive).
